Source: patent US8846914B2, “Compositions to effect neuronal growth” (Neuralstem, Inc., priority 2003, dated 2014)

Columns and labels:
hippocampal stem cells = assay: Differentiation into mature neurons (BrdU+/MAP-2ab+), three-week treatment; format: cell-based, human; details: three weeks of continuous treatment; two-day BrdU pulse; FIG. 12
Experimental: FIG. 12 is a bar graph illustrating an example of differentiation into mature neurons as a percentage of control in response to a three-week treatment with the test compounds. Mitotic cells were labeled with BrdU. BrdU-positive cells were double-stained with the marker of mature neurons, anti-MAP-2 antibody. Total BrdU-immunostained cells and BrdU+/MAP-2ab+ co-stained cells indicating neurons were counted.
In FIG. 12 the exact number of dividing cells and neurons are determined to confirm that the increase in neurons is due to proliferation followed by differentiation. In FIG. 12, hippocampal stem cells are plated in a 96-well plate. The cells are then treated with one of the agents listed along with a two-day pulse of bromodeoxyuridine which is taken up into dividing cells thereby labeling mitotic cells with BrdU. After three weeks of continuous treatment with the listed agents, the cells are fixed and stained for BrdU immunoreactivity. BrdU-positive cells are double-stained with the marker of mature neurons, anti-MAP-2 to identify cells that have differentiated into mature neurons. The BrdU+/MAP-2ab+ co-stained cells which have differentiated into mature neurons are distinguished from control BrdU-immunostained cells which are proliferating stem cells.

[1] = test system: caspase-3 activation induced by beta amyloid peptide 25-35; assay: Apoptosis induced by beta amyloid peptide 25-35 (caspase-3); format: cell-based, human; details: FIG. 8
Excerpt: (§1) FIG. 8 is a bar graph illustrating an example of a neuroprotection profile of the compounds against apoptosis, also known as programmed cell death, induced by beta amyloid peptide 25-35 as a model of Alzheimer's disease. Caspase-3 activation plays a central role in apoptosis and is an indicator of the occurrence of apoptosis if detected. […] Bars represent mean±SD from five wells.
Another assay used to determine the ability of a compound to provide neuroprotection is an apoptosis assay. Apoptosis is measured using the activity of an early matter of the programmed cell death pathway, caspase-3. Following 24 hours or 48 hours of apoptotic-induction in the presence and absence of compound treatment, the media is removed from the wells, and 50 μl cell lysis buffer is added to each well, 50 μl of 2× reaction buffer containing 10 mM DTT is then added to the lysate in each well. The contents of two wells are combined (for example: rows A/H, B/G, C/F, D/E), and 5 μl of substrate is added per well as recommended in the protocol for a caspase-3 fluorometric assay kit (Biovision) known in the art. The plate is incubated at 37° C. for 60 minutes. The contents of each well are then transferred to a fresh plate, and the fluorescence is determined with an […] using a fluorescent plate reader such as the Molecular Devices Gemini Fluorescent Plate Reader. Caspase-3 activity is expressed as μM of cleaved substrate per hour. Substrate concentration in μM is run for each plate to determine activity values for each treatment condition.
as §1, with “apoptosis” for “apoptosis, also known as programmed cell death,”, “25-35, part of a larger peptide found in plaques in Alzheimer's brains,” for “25-35”

[2] = test system: dentate gyrus of C57B16 adult mice; assay: In vivo neurogenesis, BrdU immunostaining of dentate gyrus; set-up: species or system mouse; details: for Neurogenesis in the dentate gyrus (BrdU-immunopositive cells): 10 mg/kg orally for ten days, healthy adult mice
Experimental: FIG. 9A and FIG. 9B are micrographs illustrating an example of BrdU immunostaining of a mouse dentate gyrus having been administered a vehicle and a compound. Mice were treated daily with various test compounds at 10 mg/kg p.o. (FIG. 9B) or vehicle alone (FIG. 9A) for ten days. The animals were injected daily with BrdU for the first seven days. At the end of the ten-day period, the animals were perfused and their brains sliced for immunostaining with anti-BrdU antibody and analysis.
FIGS. 10A and 10B are bar graphs illustrating an example of quantification of BrdU-immunopositive cells in the in vivo neurogenesis testing the compounds. Mice were treated with the various test compounds for in vivo neurogenesis in two cohorts. The cells from one dentate gyrus of each mouse in each test group were counted and average BrdU values immunoreactivity are shown. The symbols, * and ** indicate immunoreactivity increases of statistical significant the indicated p values. Seven compounds are especially effective in increasing the neurogenesis in the dentate gyrus of the healthy adult mice, the area known to have continued adult neurogenesis.
In one embodiment, fifteen of the compounds from Table I above are administered orally to mice at 10 mg/kg for ten days and co-administered bromodeoxyuridine (BrdU) by intraperitoneal injection for the first […] days. […] For example, in FIGS. 9A and 9B, BrdU immunostainings of hippocampal slices from two mice treated with either vehicle alone or NSI-158 are illustrated. In FIGS. 9A and 9B, the mice are treated daily for ten days with vehicle alone (FIG. 9A) or orally with various test compounds at 10 mg/kg (FIG. 9B). The animals are injected daily with BrdU for the first seven days. […]
Mice were treated with the various test compounds for in vivo neurogenesis in two cohorts as described above. The cells from one dentate gyrus of each mouse in each test group were counted and average BrdU immunoreactivity values are calculated. […]

[3] = test system: human hippocampal stem cells differentiated for a period of 3-4 weeks; assay: 2° Assay Cell#/Apop (secondary neuroprotection/apoptosis assay); format: cell-based
Excerpt: Other potential AD therapeutics progressing in clinical trials, target neurodegeneration in the hopes of reducing the neuronal loss and cognitive decline. Apoptotic death involving caspase pathways and DNA fragmentation has been measured in in vitro and animal models of AD and in Alzheimer's diseased brain tissue. The extent of apoptosis leading to neuronal loss is of continual debate with most agreeing it has some effect, but that other neuronal death pathways definitely play a role (see Behl, 2000; Broe et al., 2001, Roth, 2001). […]
A number of neurogenic agents inhibit neuronal loss, caspase-3 activity and/or nuclear fragmentation compared to staurosporine vehicle control. These NSI small molecule agents are all effective at in vitro neurogenesis as determined by methods described. […] Instrumentation such as a Molecular Devices fluorescent plate reader or a […] Array Scan II instrument and the like may be used to measure the degeneration and apoptosis.
Another assay used to determine the ability of a compound to provide neuroprotection is an apoptosis assay. Apoptosis is measured using the activity of an early matter of the programmed cell death pathway, caspase-3. […] Caspase-3 activity is expressed as μM of cleaved substrate per hour. […]

SMILES: CS(=O)(=O)N1CCCCC1C(=O)NCc1ccc(Nc2c(C3CC3)nc3ccccn23)cc1 (stereo not drawn) [NSI-127]
- Proliferation and differentiation into mature neurons (BrdU+/MAP-2ab+ cells) (hippocampal stem cells): induce proliferation and then differentiation into neurons

SMILES: COc1ccc(CCNc2ncc(C(N)=O)c(NC3CC3)n2)cc1OC [NSI-130]
- Inhibition of apoptosis induced by beta amyloid peptide 25-35 [1]: inhibit apoptosis

SMILES: NC(=O)c1cnc(NCc2ccc(Cl)cc2)nc1NCC1CCCCC1 [NSI-144]
- Proliferation and differentiation into mature neurons (BrdU+/MAP-2ab+ cells) (hippocampal stem cells): induce proliferation and then differentiation into neurons
- Inhibition of apoptosis induced by beta amyloid peptide 25-35 [1]: inhibit apoptosis

SMILES: NC(=O)C1CCCN1C(=O)c1cccnc1NCC1CCCCC1 (stereo not drawn) [NSI-158]
- Neurogenesis in the dentate gyrus (BrdU-immunopositive cells) [2]: especially effective at promoting neurogenesis
- Dividing cells in the dentate gyrus versus vehicle (BrdU immunostaining) ([2]; 10 mg/kg p.o. daily for ten days, FIG. 9A/9B): far greater dividing cells

SMILES: O=C(NCc1nc2ccccn2c1NCC1CCCO1)Oc1ccccc1 (stereo not drawn) [NSI-182]
- 2° Assay Apop [3]: 100 ± 27
- 2° Assay Cell# [3]: 78 ± 34/
- Inhibition of apoptosis induced by beta amyloid peptide 25-35 [1]: inhibit apoptosis

SMILES: O=C(COc1ccccc1)NCc1nc2ccccn2c1NCC1CCCO1 (stereo not drawn) [NSI-183]
- Proliferation and differentiation into mature neurons (BrdU+/MAP-2ab+ cells) (hippocampal stem cells): induce proliferation and then differentiation into neurons

SMILES: CC(C)CCNc1ncccc1C(=O)N1CCN(Cc2ccccc2)CC1 [NSI-189]
- Neurogenesis in the dentate gyrus (BrdU-immunopositive cells) [2]: especially effective at promoting neurogenesis

SMILES: CCN(CCNC(=O)c1cccnc1NCCC(C)C)Cc1cccnc1 [NSI-190]
- Proliferation and differentiation into mature neurons (BrdU+/MAP-2ab+ cells) (hippocampal stem cells): induce proliferation and then differentiation into neurons
